# In patent US6737383B1, “Herbicidal oxadiazolidines” (priority 1999, dated 2004):
# Assays:
# wild oat = assay: Test B pre/postemergence wild oat; type: in vivo, Avena fatua
# Procedure, shortened: (§1)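 Response is a visual 0-to-10 score relative to untreated plants, where 0 means no effect and 10 means complete control, taken twelve to sixteen days after application. Treatments went onto soil at planting and onto foliage of 1- to 4-leaf plants, using a surfactant-containing non-phytotoxic solvent.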
# purple nutsedge = assay: Test B pre/postemergence purple nutsedge; type: in vivo, Cyperus rotundus; conditions: Postemergence
# Procedure, shortened: as §1
# pigweed = assay: Test B pre/postemergence pigweed; type: in vivo, Amaranthus retroflexus
# Procedure, shortened: as §1
# velvetleaf = assay: Test B pre/postemergence velvetleaf; type: in vivo, Abutilon theophrasti
# Procedure, shortened: as §1
# cocklebur = assay: Test B pre/postemergence cocklebur; type: in vivo, Xanthium strumarium
# Procedure, shortened: as §1
# rape = assay: Test B pre/postemergence rape; type: in vivo, Brassica napus
# Procedure, shortened: as §1
# corn = assay: Test B pre/postemergence corn; type: in vivo, Zea mays
# Procedure, shortened: as §1
# surinam grass = assay: Test B pre/postemergence surinam grass; type: in vivo, Brachiaria decumbens
# Procedure, shortened: as §1
# duck salad = assay: Test B flood test duck salad; type: in vivo, Heteranthera limosa
# Procedure, shortened: (§2)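 Each value is a visual injury score relative to controls, with 10 meaning complete control and 0 no effect. Evaluation took place twelve to sixteen days after the 2-leaf-stage plants were treated and kept in the greenhouse.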
# smallflower flatsedge = assay: Test B flood test smallflower flatsedge; type: in vivo, Cyperus difformis
# Procedure, shortened: as §2
# rice = assay: Test B flood test rice; type: in vivo, Oryza sativa
# Procedure, shortened: as §2
# bedstraw = assay: Test B pre/postemergence bedstraw; type: in vivo, Galium aparine
# Procedure, shortened: as §1
# sugar beet = assay: Test B pre/postemergence sugar beet; type: in vivo, Beta vulgaris
# Procedure, shortened: as §1
# soybean = assay: Test B pre/postemergence soybean; type: in vivo, Glycine max
# Procedure, shortened: as §1
# wheat = assay: Test B pre/postemergence wheat; type: in vivo, Triticum aestivum
# Procedure, shortened: as §1
# giant foxtail = assay: Test B pre/postemergence giant foxtail; type: in vivo, Setaria faberii
# Procedure, shortened: as §1
# [1] = Preemergence, Rate 62 g/ha, scale of 0 to 10 where 0 is no effect and 10 is complete control
# [2] = Preemergence, Rate 250 g/ha, scale of 0 to 10 where 0 is no effect and 10 is complete control
# [3] = Preemergence, Rate 500 g/ha, scale of 0 to 10 where 0 is no effect and 10 is complete control
# [4] = Rate 62 g/ha, Postemergence, scale of 0 to 10 where 0 is no effect and 10 is complete control
# [5] = Rate 125 g/ha, Postemergence, scale 0 to 10
# [6] = Rate 125 g/ha, Preemergence, scale of 0 to 10 where 0 is no effect and 10 is complete control
# [7] = Rate 500 g/ha, Postemergence, scale 0 to 10, 0 no effect, 10 complete control
# [8] = Rate 62 g/ha, headed Pre-emergence (flood test species), scale 0 to 10 (0 no effect, 10 complete control)
# [9] = Rate 125 g/ha, Pre-emergence, flood test species, scale 0 to 10 where 0 is no effect and 10 is complete control
# [10] = Rate 250 g/ha, Pre-emergence, flood-test species, scale 0 to 10, 0 is no effect, 10 is complete control
# [11] = Rate 500 g/ha, Pre-emergence, flood test species, scale 0 to 10 (0 no effect, 10 complete control)
smiles,measurement,setting,value
CC(C)N(C(=O)n1oc(=O)n(CC2(C)COC2)c1=O)c1ccc(F)cc1 [Compound 226],Wild oats plant response rating,wild oat; [1],1
same,Wild oats plant response rating,wild oat; [2],9
same,"Plant response rating, Wild oats",wild oat; [3],10
same,Wild oats plant response rating,wild oat; [4],0
same,Wild oats plant response rating,wild oat; [5],0
same,Wild oats plant response rating,wild oat; [6],3
same,"Plant response rating (0 to 10; 0 is no effect, 10 is complete control), Wild oats","wild oat; Rate 250 g/ha, Postemergence",0
same,Wild oats plant response rating,wild oat; [7],3
same,Nutsedge plant response rating,"purple nutsedge; Rate 62 g/ha, scale of 0 to 10 where 0 is no effect and 10 is complete control",0
same,Nutsedge plant response rating,"purple nutsedge; Rate 125 g/ha, scale 0 to 10",0
same,"Plant response rating (0 to 10; 0 is no effect, 10 is complete control), Nutsedge",purple nutsedge; Rate 250 g/ha,0
same,Nutsedge plant response rating,"purple nutsedge; Rate 500 g/ha, scale 0 to 10, 0 no effect, 10 complete control",4
same,Redroot pigweed plant response rating,pigweed; [1],0
same,Redroot pigweed plant response rating,pigweed; [2],7
same,"Plant response rating, Redroot pigweed",pigweed; [3],9
same,Redroot pigweed plant response rating,pigweed; [4],0
same,Redroot pigweed plant response rating,pigweed; [5],0
same,Redroot pigweed plant response rating,pigweed; [6],0
same,"Plant response rating (0 to 10; 0 is no effect, 10 is complete control), Redroot pigweed","pigweed; Rate 250 g/ha, Postemergence",0
same,Redroot pigweed plant response rating,pigweed; [7],0
same,Velvetleaf plant response rating,velvetleaf; [1],2
same,Velvetleaf plant response rating,velvetleaf; [2],6
same,"Plant response rating, Velvetleaf",velvetleaf; [3],7
same,Velvetleaf plant response rating,velvetleaf; [4],0
same,Velvetleaf plant response rating,velvetleaf; [5],0
same,Velvetleaf plant response rating,velvetleaf; [6],5
same,"Plant response rating (0 to 10; 0 is no effect, 10 is complete control), Velvetleaf","velvetleaf; Rate 250 g/ha, Postemergence",0
same,Velvetleaf plant response rating,velvetleaf; [7],0
same,Cocklebur plant response rating,cocklebur; [1],0
same,Cocklebur plant response rating,cocklebur; [2],0
same,"Plant response rating, Cocklebur",cocklebur; [3],0
same,Cocklebur plant response rating,cocklebur; [4],0
same,Cocklebur plant response rating,cocklebur; [5],0
same,Cocklebur plant response rating,cocklebur; [6],0
same,"Plant response rating (0 to 10; 0 is no effect, 10 is complete control), Cocklebur","cocklebur; Rate 250 g/ha, Postemergence",0
same,Cocklebur plant response rating,cocklebur; [7],2
same,Rape plant response rating,rape; [1],0
same,Rape plant response rating,rape; [2],7
same,"Plant response rating, Rape",rape; [3],10
same,Rape plant response rating,rape; [4],0
same,Rape plant response rating,rape; [5],0
same,Rape plant response rating,rape; [6],0
same,"Plant response rating (0 to 10; 0 is no effect, 10 is complete control), Rape","rape; Rate 250 g/ha, Postemergence",0
same,Rape plant response rating,rape; [7],6
same,Corn plant response rating,corn; [1],0
same,Corn plant response rating,corn; [2],6
same,"Plant response rating, Corn",corn; [3],9
same,Corn plant response rating,corn; [4],0
same,Corn plant response rating,corn; [5],0
same,Corn plant response rating,corn; [6],0
same,"Plant response rating (0 to 10; 0 is no effect, 10 is complete control), Corn","corn; Rate 250 g/ha, Postemergence",0
same,Corn plant response rating,corn; [7],6
same,B. signalgrass plant response rating,surinam grass; [1],3
same,B. signalgrass plant response rating,"surinam grass; Preemergence, Rate 250 g/ha, scale 0 to 10, 0 is no effect, 10 is complete control",9
same,"Plant response rating, B. signalgrass",surinam grass; [3],10
same,B. signalgrass plant response rating,surinam grass; [4],0
same,B. signalgrass plant response rating,"surinam grass; Rate 125 g/ha, Postemergence, scale 0 (no effect) to 10 (complete control)",2
same,B. signalgrass plant response rating,surinam grass; [6],6
same,"Plant response rating (0 to 10; 0 is no effect, 10 is complete control), B. signalgrass","surinam grass; Rate 250 g/ha, Postemergence",6
same,B. signalgrass plant response rating,surinam grass; [7],9
same,Ducksalad plant response rating,duck salad; [8],0
same,Ducksalad plant response rating,duck salad; [9],0
same,Ducksalad plant response rating,duck salad; [10],0
same,Ducksalad plant response rating,duck salad; [11],0
same,S. Flatsedge plant response rating,smallflower flatsedge; [8],0
same,S. Flatsedge plant response rating,smallflower flatsedge; [9],0
same,S. Flatsedge plant response rating,smallflower flatsedge; [10],0
same,S. Flatsedge plant response rating,smallflower flatsedge; [11],0
same,Rice plant response rating,rice; [8],0
same,Rice plant response rating,rice; [9],0
same,Rice plant response rating,rice; [10],0
same,Rice plant response rating,rice; [11],0
same,Bedstraw plant response rating,bedstraw; [1],0
same,Bedstraw plant response rating,bedstraw; [2],0
same,"Plant response rating, Bedstraw",bedstraw; [3],0
same,Bedstraw plant response rating,bedstraw; [4],0
same,Bedstraw plant response rating,bedstraw; [5],3
same,Bedstraw plant response rating,bedstraw; [6],0
same,"Plant response rating (0 to 10; 0 is no effect, 10 is complete control), Bedstraw","bedstraw; Rate 250 g/ha, Postemergence",5
same,Bedstraw plant response rating,bedstraw; [7],7
same,Sugarbeets plant response rating,sugar beet; [1],0
same,Sugarbeets plant response rating,sugar beet; [2],5
same,"Plant response rating, Sugarbeets",sugar beet; [3],6
same,Sugarbeets plant response rating,sugar beet; [4],0
same,Sugarbeets plant response rating,sugar beet; [5],0
same,Sugarbeets plant response rating,sugar beet; [6],3
same,"Plant response rating (0 to 10; 0 is no effect, 10 is complete control), Sugarbeets","sugar beet; Rate 250 g/ha, Postemergence",0
same,Sugarbeets plant response rating,sugar beet; [7],2
same,Soybean plant response rating,soybean; [1],0
same,Soybean plant response rating,soybean; [2],0
same,"Plant response rating, Soybean",soybean; [3],0
same,Soybean plant response rating,soybean; [4],2
same,Soybean plant response rating,soybean; [5],2
same,Soybean plant response rating,soybean; [6],0
same,"Plant response rating (0 to 10; 0 is no effect, 10 is complete control), Soybean","soybean; Rate 250 g/ha, Postemergence",3
same,Soybean plant response rating,soybean; [7],6
same,Wheat plant response rating,wheat; [1],6
same,Wheat plant response rating,wheat; [2],8
same,"Plant response rating, Wheat",wheat; [3],8
same,Wheat plant response rating,wheat; [4],2
same,Wheat plant response rating,wheat; [5],4
same,Wheat plant response rating,wheat; [6],8
same,"Plant response rating (0 to 10; 0 is no effect, 10 is complete control), Wheat","wheat; Rate 250 g/ha, Postemergence",7
same,Wheat plant response rating,wheat; [7],9
same,Giant foxtail plant response rating,giant foxtail; [1],9
same,Giant foxtail plant response rating,giant foxtail; [2],10
same,"Plant response rating, Giant foxtail",giant foxtail; [3],10
same,Giant foxtail plant response rating,giant foxtail; [4],2
same,Giant foxtail plant response rating,giant foxtail; [5],7
same,Giant foxtail plant response rating,giant foxtail; [6],10
same,"Plant response rating (0 to 10; 0 is no effect, 10 is complete control), Giant foxtail","giant foxtail; Rate 250 g/ha, Postemergence",7
same,Giant foxtail plant response rating,giant foxtail; [7],7
